According to patent US7855228B2, “Antibiotics targeting MreB” (The Board of Trustees of the Leland Stamford Junior …, priority 2005, dated 2010):
Like-named read-outs stand apart in the source and are kept apart here.

Key:
[1] = tested on: S. aureus subsp. aureus NBRC15035; assay: Determination of minimum inhibitory concentration (MIC); type: cell-based, Staphylococcus aureus; settings: Staphylococcus aureus, read-out: MIC S. aureus
How it was run: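 Two-fold serial agar dilution on L agar and also on Mueller Hinton agar (pH 7.3); 10 µl of stationary-phase culture diluted in 0.85% NaCl to 10^6 cells/ml spotted per plate. MIC taken as lowest concentration inhibiting growth.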

Caulobacter crescentus = assay: Caulobacter growth (optical density, doubling time); type: cell-based; settings: for Doubling in A22 in WT Genetic Background / Doubling Time in A22 / Doubling in A22 when Replaced by WT mreB: cell mass over 6 hr, A660
Experimental: Similar volumes of solvent (methanol) alone had no effect on growth. […] This rapid effect on cell growth could be due to a disruption in cell wall deposition or could reflect a secondary response to some other cellular perturbation.
MreB Is the Direct Target of A22. To identify the cellular target(s) of A22, we carried out a screen for A22-resistant mutants by growing large numbers of Caulobacter on plates containing 10 μg/ml A22. We independently isolated 20 mutants that stably and repeatedly formed colonies on plates containing 10 μg/ml A22 and grew in liquid culture containing 10 μg/ml A22. Since MreB was proposed as a possible target of A22, we PCR-amplified and sequenced the mreB gene in the 20 A22-resistant strains and a control wild-type strain. Each of the 20 A22-resistant strains contained a single missense point mutation in its mreB gene, whereas the wild-type A22-sensitive strain had no mreB point mutations (Table 2). Though isolated independently, the 20 strains had only 7 different point mutations: one specific point mutation was found in 10 of the strains, another specific point mutation was found in 5 of the strains, and 5 additional point mutations were found in 1 strain each. Since all 7 of these mutations affected amino acids that are conserved between Caulobacter MreB and Thermotoga maritima MreB, they could be mapped onto the solved three-dimensional structure of T. maritima MreB. […] All of the resistant strains grow at a similar rate in rich PYE medium (w115 min/doubling), which is slower than wild-type cells without drug (87 min/doubling), but they are largely unaffected by the presence of A22 (w115 min/doubling) (Table 2).
Bacterial Strains and Growth Conditions. Caulobacter crescentus strains CB15N and derivatives were grown in PYE or M2G medium or agar plates supplemented with the appropriate combinations of antibiotics, glucose, xylose, A22, and the A22 diluent, methanol. The FROS strains labeled at both the origin and CC2943, CC3300, CC3656, and CC0091, or singly labeled at CC0786, and CC3192 were generated and characterized in a previous study, where they were referred to as MPO40, MPO53, MPO7, MPO133, MP156, and MP82, respectively. Growth and analysis conditions for the mreB depletion, holB:gfp, and FROS strains have been previously described. The methods for ΦCr30-mediated generalized phage transduction and swarmer cell isolation by Percoll density gradient centrifugation have also been described. Washes were performed by micro centrifugation at 8000 g. Twenty independent A22-resistant Caulobacter mutants were isolated by growing 20 single CB15N colonies overnight and plating 10^9 cells per culture on PYE plates containing 10 μg/ml A22. One A22-resistant colony from each plate was isolated, retested, and characterized. To sequence the mreB gene from these strains, mreB was PCR-amplified and the resulting band was gel-purified (Qiagen) and sequenced. Overlay PCR mutagenesis was used to introduce the […] point mutation (A509G) into the previously described PxyI:gfp:mreB construct.

Caulobacter = assay: Colony formation assay; type: cell-based, Caulobacter crescentus
Source text: To assess the impact of A22 on cell division and survival, we examined the effect of A22 on colony formation.

[2] = tested on: Caulobacter DNA replication; assay: Analysis of DNA replication (32P-labeled dGTP incorporation, DNA-content FACS); type: cell-based, Caulobacter crescentus
Source text: We first examined the incorporation of radiolabeled dGTP into DNA, which linearly correlates with the rate of DNA replication. […] To assess the effect of A22 on DNA replication during the cell cycle, the radiolabeled nucleotide incorporation assay was repeated using synchronized cultures at different points in the cell cycle. Untreated cells display a dramatic rise in radioactivity levels characteristic of DNA replication initiation at the swarmer-to-stalked cell transition. This rise in radioactivity levels was also observed in A22-treated cells (FIG. 6A).
Finally, we examined the DNA content of A22-treated cells by FACS.
Analysis of DNA Replication. DNA replication was assessed by incorporation of 32P-labeled dGTP) or chromomycin-stained DNA-content FACS analysis as described previously.

E. coli cells = assay: Cell lysis; type: cell-based
Source text: To facilitate the isolation of A22-resistant mutants a PBP 1B-defective (ponB^−) mutant strain, JST975, which forms a clear growth inhibitory zone upon A22 treatment, was selected as the parent strain in our screen. […] This correlates well with the increased sensitivity of mreB mutant strains to β-lactam antibiotics. In future screens for antibacterial agents derived from A22, it will be important to consider that the antibacterial effect of A22 on wild-type E. coli cells may be enhanced by simultaneous treatment with sub-lethal concentrations of β-lactam antibiotics.

With `N=C(N)SCc1ccc(Cl)c(Cl)c1` [Compound 1, S-(3,4-dichlorobenzyl)isothiourea] the MIC ([1]; NBRC15035, Example 2, methods as in Example 1) was over 100 µg/mL, the MIC ([1]; NBRC15035, Table 1, NBRC15035) was over 100 µg/mL and the “Effect on growth of Caulobacter cultures” value (Caulobacter crescentus; 0.1-100 μg/ml, up to 6 hr) was “slowed growth in a dose-dependent fashion”. The “Doubling in A22 in WT Genetic Background” value (Caulobacter crescentus; mreB allele: A325P) was 115′, the “Doubling in A22 in WT Genetic Background” value (Caulobacter crescentus; mreB allele: D16G) was 112′ and the “Doubling in A22 in WT Genetic Background” value (Caulobacter crescentus; mreB allele: D192G) was 116′. For the same molecule, the “Doubling in A22 in WT Genetic Background” value (Caulobacter crescentus; mreB allele: L23R) was 120′, the “Doubling in A22 in WT Genetic Background” value (Caulobacter crescentus; mreB allele: None (wt)) was 156′ and the “Doubling in A22 in WT Genetic Background” value (Caulobacter crescentus; mreB allele: P112S) was 119′. The “Doubling in A22 in WT Genetic Background” value (Caulobacter crescentus; mreB allele: T167A) was 105′, the “Doubling in A22 in WT Genetic Background” value (Caulobacter crescentus; mreB allele: V324A) was 115′ and the “Doubling Time in A22” value (Caulobacter crescentus; mreB mutation: A325P) was 116′. The “Doubling Time in A22” value (Caulobacter crescentus; mreB mutation: D16G) was 115′, the “Doubling Time in A22” value (Caulobacter crescentus; mreB mutation: D192G) was 118′ and the “Doubling Time in A22” value (Caulobacter crescentus; mreB mutation: L23R) was 121′. For the same molecule, the “Doubling Time in A22” value (Caulobacter crescentus; mreB mutation: None (wt)) was 148′, the “Doubling Time in A22” value (Caulobacter crescentus; mreB mutation: P112S) was 118′ and the “Doubling Time in A22” value (Caulobacter crescentus; mreB mutation: T167A) was 110′. The “Doubling Time in A22” value (Caulobacter crescentus; mreB mutation: V324A) was 113′, the “Time after A22 treatment at which a decline in growth rate was observed” value (Caulobacter crescentus; rich PYE medium) was 30 min and the “Doubling in A22 when Replaced by WT mreB” value (Caulobacter crescentus; strain: A325P) was 144′. For the same molecule, the “Doubling in A22 when Replaced by WT mreB” value (Caulobacter crescentus; strain: D16G) was 150′, the “Doubling in A22 when Replaced by WT mreB” value (Caulobacter crescentus; strain: None (wt)) was 145′ and the “Doubling in A22 when Replaced by WT mreB” value (Caulobacter crescentus; strain: P112S) was 146′. The “Doubling in A22 when Replaced by WT mreB” value (Caulobacter crescentus; strain: T167A) was 148′, the “Doubling in A22 when Replaced by WT mreB” value (Caulobacter crescentus; strain: V324A) was 142′ and the “Colony formation (CFU)” value (Caulobacter; 0.1 μg/ml) was “un-perturbed”. For the same molecule, the “Colony formation (CFU)” value (Caulobacter; 1 μg/ml) was “partially slowed colony formation”, the “Colony formation (CFU)” value (Caulobacter; 10 μg/ml and higher) was “completely halted the increase in CFU” and the “Incorporation of radiolabeled dGTP, asynchronous cultures” value [2] was “does not interfere with bulk DNA synthesis”. For the same molecule, the “Incorporation of radiolabeled dGTP, synchronized cultures (replication initiation)” value ([2]; 10 μg/ml A22 or 5 mg/ml HU) was “slightly delayed replication initiation”, the “DNA content by FACS” value ([2]; 10 μg/ml, 8 hr) was “predominantly contained cells with two chromosomes” and the “Lysis of E. coli cells in the absence of PBP 1B” value (E. coli cells; JST975 liquid culture) was “induces cell lysis”. For the same molecule, the “Lysis of wild-type E. coli cells” value (E. coli cells; wild-type) was “does not lyse”.
